The supplement of paper PMC10307832

Assays:
Experiment in all cases: relative viability (nuclei count vs DMSO), 5 days (fraction); higher = more cells survive
NCI-H441 = system: NCI-H441
Procedure, shortened: (§1)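 Lung cancer cell lines, seeded in 1536-well plates, were treated the following day by pin tool with a single drug or with five library-drug doses (not always all listed) in √10 steps on top of a fixed anchor-drug dose. Cells were fixed and nuclei stained in one step after 5 days, and nuclei were counted. Relative viability is the nuclei count for treated wells divided by that for vehicle wells, reported as medians of duplicate plates.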

EKVX = system: EKVX
Procedure, shortened: as §1

NCI-H358 = system: NCI-H358
Procedure, shortened: as §1

HCC-366 = system: HCC-366
Procedure, shortened: as §1

NCI-H1437 = system: NCI-H1437
Procedure, shortened: as §1

LOU-NH91 = system: LOU-NH91
Procedure, shortened: as §1

NCI-H1650 = system: NCI-H1650
Procedure, shortened: as §1

HCC-15 = system: HCC-15
Procedure, shortened: as §1

NCI-H1734 = system: NCI-H1734
Procedure, shortened: as §1

LCLC-103H = system: LCLC-103H
Procedure, shortened: as §1

BEN = system: BEN
Procedure, shortened: as §1

NCI-H1395 = system: NCI-H1395
Procedure, shortened: as §1

NCI-H838 = system: NCI-H838
Procedure, shortened: as §1

NCI-H1651 = system: NCI-H1651
Procedure, shortened: as §1

NCI-H460 = system: NCI-H460
Procedure, shortened: as §1

NCI-H1755 = system: NCI-H1755
Procedure, shortened: as §1

CAL-12T = system: CAL-12T
Procedure, shortened: as §1

NCI-H2085 = system: NCI-H2085
Procedure, shortened: as §1

NCI-H1563 = system: NCI-H1563
Procedure, shortened: as §1

NCI-H1975 = system: NCI-H1975
Procedure, shortened: as §1

HCC-44 = system: HCC-44
Procedure, shortened: as §1

NCI-H1355 = system: NCI-H1355
Procedure, shortened: as §1

NCI-H2023 = system: NCI-H2023
Procedure, shortened: as §1

NCI-H2342 = system: NCI-H2342
Procedure, shortened: as §1

COc1cc(N2CCC(C(N)=O)CC2)ccc1Nc1nc(N)c(Cl)c(Nc2ccccc2S(=O)(=O)C(C)C)n1 [HG-5-88-01] + COc1cccc2cc(-c3nc([C@H]4CC[C@H](C(=O)O)CC4)n4ncnc(N)c34)[nH]c12 [OSI-027] (partner 0.5 µM)
relative viability (NCI-H441; first compound 0.04 µM): 0.787
relative viability (NCI-H441; first compound 0.1265 µM): 0.77
relative viability (NCI-H441; first compound 0.4 µM): 0.848
relative viability (NCI-H441; first compound 1.265 µM): 0.437
relative viability (NCI-H441; first compound 4 µM): 0.421
relative viability (EKVX; first compound 0.04 µM): 0.714
relative viability (EKVX; first compound 0.1265 µM): 0.719
relative viability (EKVX; first compound 0.4 µM): 0.724
relative viability (EKVX; first compound 4 µM): 0.535
relative viability (NCI-H358; first compound 0.04 µM): 0.692
relative viability (NCI-H358; first compound 0.1265 µM): 0.673
relative viability (NCI-H358; first compound 0.4 µM): 0.588
relative viability (NCI-H358; first compound 1.265 µM): 0.234
relative viability (NCI-H358; first compound 4 µM): 0.133
relative viability (HCC-366; first compound 0.04 µM): 1.02
relative viability (HCC-366; first compound 0.1265 µM): 0.941
relative viability (HCC-366; first compound 0.4 µM): 1.02
relative viability (HCC-366; first compound 1.265 µM): 0.577
relative viability (HCC-366; first compound 4 µM): 0.6
relative viability (NCI-H1437; first compound 0.04 µM): 0.836
relative viability (NCI-H1437; first compound 0.1265 µM): 0.92
relative viability (NCI-H1437; first compound 0.4 µM): 0.887
relative viability (NCI-H1437; first compound 1.265 µM): 0.735
relative viability (NCI-H1437; first compound 4 µM): 0.83
relative viability (LOU-NH91; first compound 0.04 µM): 0.602
relative viability (LOU-NH91; first compound 0.1265 µM): 0.635
relative viability (LOU-NH91; first compound 0.4 µM): 0.615
relative viability (LOU-NH91; first compound 1.265 µM): 0.442
relative viability (LOU-NH91; first compound 4 µM): 0.451
relative viability (NCI-H1650; first compound 0.04 µM): 0.603
relative viability (NCI-H1650; first compound 0.1265 µM): 0.657
relative viability (NCI-H1650; first compound 0.4 µM): 0.399
relative viability (NCI-H1650; first compound 1.265 µM): 0.32
relative viability (NCI-H1650; first compound 4 µM): 0.265
relative viability (HCC-15; first compound 0.04 µM): 0.683
relative viability (HCC-15; first compound 0.1265 µM): 0.8
relative viability (HCC-15; first compound 0.4 µM): 0.539
relative viability (HCC-15; first compound 1.265 µM): 0.547
relative viability (HCC-15; first compound 4 µM): 0.326
relative viability (NCI-H1734; first compound 0.04 µM): 0.59
relative viability (NCI-H1734; first compound 0.1265 µM): 0.615
relative viability (NCI-H1734; first compound 0.4 µM): 0.394
relative viability (NCI-H1734; first compound 1.265 µM): 0.399
relative viability (NCI-H1734; first compound 4 µM): 0.386
relative viability (LCLC-103H; first compound 0.04 µM): 0.416
relative viability (LCLC-103H; first compound 0.1265 µM): 0.435
relative viability (LCLC-103H; first compound 0.4 µM): 0.381
relative viability (LCLC-103H; first compound 1.265 µM): 0.362
relative viability (LCLC-103H; first compound 4 µM): 0.405
relative viability (BEN; first compound 0.04 µM): 0.305
relative viability (BEN; first compound 0.1265 µM): 0.312
relative viability (BEN; first compound 0.4 µM): 0.262
relative viability (BEN; first compound 1.265 µM): 0.3
relative viability (BEN; first compound 4 µM): 0.262
relative viability (NCI-H1395; first compound 0.04 µM): 0.583
relative viability (NCI-H1395; first compound 0.1265 µM): 0.66
relative viability (NCI-H1395; first compound 0.4 µM): 0.638
relative viability (NCI-H1395; first compound 1.265 µM): 0.646
relative viability (NCI-H1395; first compound 4 µM): 0.631
relative viability (NCI-H838; first compound 0.04 µM): 0.359
relative viability (NCI-H838; first compound 0.1265 µM): 0.333
relative viability (NCI-H838; first compound 0.4 µM): 0.238
relative viability (NCI-H838; first compound 1.265 µM): 0.247
relative viability (NCI-H838; first compound 4 µM): 0.173
relative viability (NCI-H1651; first compound 0.04 µM): 0.748
relative viability (NCI-H1651; first compound 0.1265 µM): 0.696
relative viability (NCI-H1651; first compound 0.4 µM): 0.605
relative viability (NCI-H1651; first compound 1.265 µM): 0.627
relative viability (NCI-H1651; first compound 4 µM): 0.58
relative viability (NCI-H460; first compound 0.04 µM): 0.604
relative viability (NCI-H460; first compound 0.1265 µM): 0.655
relative viability (NCI-H460; first compound 0.4 µM): 0.543
relative viability (NCI-H460; first compound 1.265 µM): 0.344
relative viability (NCI-H460; first compound 4 µM): 0.287
relative viability (NCI-H1755; first compound 0.04 µM): 0.722
relative viability (NCI-H1755; first compound 0.1265 µM): 0.731
relative viability (NCI-H1755; first compound 0.4 µM): 0.677
relative viability (NCI-H1755; first compound 1.265 µM): 0.686
relative viability (NCI-H1755; first compound 4 µM): 0.434
relative viability (CAL-12T; first compound 0.04 µM): 0.491
relative viability (CAL-12T; first compound 0.1265 µM): 0.672
relative viability (CAL-12T; first compound 0.4 µM): 0.612
relative viability (CAL-12T; first compound 1.265 µM): 0.208
relative viability (CAL-12T; first compound 4 µM): 0.173
relative viability (NCI-H2085; first compound 0.04 µM): 0.713
relative viability (NCI-H2085; first compound 0.1265 µM): 0.872
relative viability (NCI-H2085; first compound 0.4 µM): 0.615
relative viability (NCI-H2085; first compound 1.265 µM): 0.384
relative viability (NCI-H2085; first compound 4 µM): 0.321
relative viability (NCI-H1563; first compound 0.04 µM): 0.715
relative viability (NCI-H1563; first compound 0.1265 µM): 0.754
relative viability (NCI-H1563; first compound 0.4 µM): 0.709
relative viability (NCI-H1563; first compound 1.265 µM): 0.638
relative viability (NCI-H1563; first compound 4 µM): 0.573
relative viability (NCI-H1975; first compound 0.04 µM): 0.711
relative viability (NCI-H1975; first compound 0.1265 µM): 0.803
relative viability (NCI-H1975; first compound 0.4 µM): 0.631
relative viability (NCI-H1975; first compound 1.265 µM): 0.461
relative viability (NCI-H1975; first compound 4 µM): 0.19
relative viability (HCC-44; first compound 0.04 µM): 0.491
relative viability (HCC-44; first compound 0.1265 µM): 0.507
relative viability (HCC-44; first compound 0.4 µM): 0.353
relative viability (HCC-44; first compound 1.265 µM): 0.392
relative viability (HCC-44; first compound 4 µM): 0.121
relative viability (NCI-H1355; first compound 0.04 µM): 0.341
relative viability (NCI-H1355; first compound 0.1265 µM): 0.419
relative viability (NCI-H1355; first compound 0.4 µM): 0.3
relative viability (NCI-H1355; first compound 1.265 µM): 0.253
relative viability (NCI-H1355; first compound 4 µM): 0.237
relative viability (NCI-H2023; first compound 0.04 µM): 0.433
relative viability (NCI-H2023; first compound 0.1265 µM): 0.407
relative viability (NCI-H2023; first compound 0.4 µM): 0.205
relative viability (NCI-H2023; first compound 1.265 µM): 0.109
relative viability (NCI-H2023; first compound 4 µM): 0.127
relative viability (NCI-H2342; first compound 0.04 µM): 0.607
relative viability (NCI-H2342; first compound 0.1265 µM): 0.527
relative viability (NCI-H2342; first compound 0.4 µM): 0.611
relative viability (NCI-H2342; first compound 1.265 µM): 0.485
relative viability (NCI-H2342; first compound 4 µM): 0.563
